Assay results taken from patent publication US20250049791A1, “Synthesis of MEK7 Inhibitors and methods of Use Thereof” (Northwestern University, priority 2023, published 2025).
Entries after “also recorded” stand apart in the source; their conditions may differ.

Assays:
90 wildtype kinases = assay: ScanEDGE 97-kinase selectivity screen (DiscoverX/Eurofins), panel and S-score; assay type: binding
Excerpt: (§1) The ScanEDGE assay, completed by DiscoverX (Eurofins) is a proprietary active site-directed competition binding assay. Compounds that bind the kinase active site prevent kinase binding to the immobilized ligand, reducing the amount of kinase captured on the solid support. Hits are identified by measuring the amount of kinase captured in experimental vs, control samples by a qPCR method that detects an associated DNA label. According to data provided by Eurofins, a typical hit at 5-10% of control signal in a 1 μM assay as shown above is generally associated with a KD in the range of 100-1,000 nM. Readings with greater than 35% of control signal correspond to exceeding large dissociation constants.
Selectivity score (or S-score) is a quantitative measure of compound selectivity corresponding to the ratio of hits to the number of screened wildtype kinases.

JNK1/2/3 = assay: ScanEDGE competition binding, JNK1/2/3; conditions: ScanEDGE screen
Excerpt: as §1

[1] = molecular target: T1, MAP2K7 recombinant protein (Homo sapiens, UniProt O14733); assay: LC/MS-MS determination of residue selectivity; assay type: binding
T1 construct: purchased Carna Biosciences 07-147-10; host or cells: E. coli
T1 sequence (O14733 1-419): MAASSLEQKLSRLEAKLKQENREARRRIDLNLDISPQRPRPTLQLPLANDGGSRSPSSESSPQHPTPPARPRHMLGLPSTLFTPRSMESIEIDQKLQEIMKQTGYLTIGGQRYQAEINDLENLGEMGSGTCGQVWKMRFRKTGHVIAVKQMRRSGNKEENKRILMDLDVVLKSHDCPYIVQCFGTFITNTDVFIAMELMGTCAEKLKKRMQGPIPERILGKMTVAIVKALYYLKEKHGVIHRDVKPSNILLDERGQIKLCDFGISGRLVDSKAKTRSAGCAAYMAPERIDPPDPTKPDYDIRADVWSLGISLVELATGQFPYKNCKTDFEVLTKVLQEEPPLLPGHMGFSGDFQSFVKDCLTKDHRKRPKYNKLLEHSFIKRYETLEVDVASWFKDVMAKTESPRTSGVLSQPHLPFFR
Method: MAP2K7 recombinant protein was diluted, purified, and incubated as described above. After incubation, protein solution was denatured with 8 M urea for 10 minutes at 65° C., reduced with 12.5 mM DTT for 15 minutes at 65° C., and alkylated with 25 mM iodoacetamide in the absence of light for 30 minutes at 37° C. Protein solution was diluted with PBS to 2 M urea and divided into two digestion reactions: one with 2 μg trypsin and 10 μg chymotrypsin for 6 hours at 37° C., the other with 5 μg GluC for 6 hours at 37° C. Digested peptides were acidified with 5% formic acid and desalted using Sep-Pak C18 1 cc Vac Cartridge (Waters). Peptides were analyzed by liquid chromatography tandem mass-spectrometry using an Orbitrap Eclipse Tribrid Mass Spectrometer (Thermo Scientific) coupled to an Vanquish Neo UHPLC System (Thermo Scientific). Peptides were injected onto EASY-Spray HPLC Column (C18, 2 μm particle size, 75 μm inner diameter, 250 mm length) and separated at a flow rate of […] using the following gradient: 5% buffer B (80% acetonitrile with 0.1% formic acid) in buffer A (water with 0.1% formic acid) from 0-15 min, 5-45% buffer B from 15-155 min, 45-100% buffer B from 155-180 min. Raw data was searched in Proteome Discoverer 2.5 (Thermo Scientific).

FLT3 = molecular target: T2, FLT3 (Homo sapiens, UniProt P36888); assay: ScanEDGE competition binding, FLT3; conditions: ScanEDGE screen
T2 construct: purchased DiscoverX (Eurofins)
T2 sequence (P36888 27-993): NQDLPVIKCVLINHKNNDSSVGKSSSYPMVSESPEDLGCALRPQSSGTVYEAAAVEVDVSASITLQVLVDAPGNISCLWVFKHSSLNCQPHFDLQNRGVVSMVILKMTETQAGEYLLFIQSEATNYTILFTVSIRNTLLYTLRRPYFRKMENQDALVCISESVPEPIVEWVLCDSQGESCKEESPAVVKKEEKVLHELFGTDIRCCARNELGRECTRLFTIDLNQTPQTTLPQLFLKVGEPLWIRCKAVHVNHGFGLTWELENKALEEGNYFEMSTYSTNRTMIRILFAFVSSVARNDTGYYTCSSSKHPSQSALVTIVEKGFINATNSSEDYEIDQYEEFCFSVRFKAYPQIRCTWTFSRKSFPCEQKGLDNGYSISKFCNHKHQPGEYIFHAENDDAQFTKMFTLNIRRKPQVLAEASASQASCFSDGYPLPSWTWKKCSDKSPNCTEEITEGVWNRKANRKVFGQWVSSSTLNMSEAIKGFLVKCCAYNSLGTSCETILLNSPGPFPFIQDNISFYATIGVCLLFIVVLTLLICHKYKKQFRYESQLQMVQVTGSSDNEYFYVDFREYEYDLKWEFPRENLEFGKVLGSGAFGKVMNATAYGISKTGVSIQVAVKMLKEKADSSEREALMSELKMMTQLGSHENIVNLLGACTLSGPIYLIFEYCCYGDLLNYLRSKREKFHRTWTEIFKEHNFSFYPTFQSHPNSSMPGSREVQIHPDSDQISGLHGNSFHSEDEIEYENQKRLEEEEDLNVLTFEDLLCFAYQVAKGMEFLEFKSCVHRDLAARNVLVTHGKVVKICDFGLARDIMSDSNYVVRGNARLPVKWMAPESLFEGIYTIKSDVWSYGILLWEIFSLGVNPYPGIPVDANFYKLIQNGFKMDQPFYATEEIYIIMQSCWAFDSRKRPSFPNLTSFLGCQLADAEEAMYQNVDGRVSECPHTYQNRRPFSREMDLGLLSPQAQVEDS
Excerpt: as §1

[2] = system: JNK and ATF2 phosphorylation in T-ALL cells; assay: Immunoblot analysis of JNK and ATF2 phosphorylation; assay type: cell-based
Method: Cells were lysed with SDS lysis buffer containing (10 mM Tris pH 7.4 containing 1% SDS and 1 mM PMSF) and supplemented with Halt Protease and Phosphatase Inhibitor Cocktail (ThermoFisher) after 24 h of incubation. Protein lysates were electrophoresed onto SDS PAGE gel and transferred to the PVDF membrane using the iBLOT system. Antibodies phospho-SAPK/JNK (clone 81E11) (#4668) and SAPK/JNK (#9252) were used at 1:5000 dilution. Secondary antibodies cross-linked with HRP (anti-rabbit IgG #7074 and anti-mouse IgG #7076) were used for respective primary antibodies at concentrations 1:20,000. Protein detection was performed using West Femto Maximum Sensitivity Substrate (ThermoFisher) and Amersham Hyperfilm ECL (GE).

EGFR = molecular target: T3, EGFR (Homo sapiens, UniProt P00533); assay: ScanEDGE competition binding, EGFR; conditions: at 1 μM; b168 prints 1 M
T3 construct: purchased DiscoverX (Eurofins)
Excerpt: as §1

T3 sequence (P00533 25-1210): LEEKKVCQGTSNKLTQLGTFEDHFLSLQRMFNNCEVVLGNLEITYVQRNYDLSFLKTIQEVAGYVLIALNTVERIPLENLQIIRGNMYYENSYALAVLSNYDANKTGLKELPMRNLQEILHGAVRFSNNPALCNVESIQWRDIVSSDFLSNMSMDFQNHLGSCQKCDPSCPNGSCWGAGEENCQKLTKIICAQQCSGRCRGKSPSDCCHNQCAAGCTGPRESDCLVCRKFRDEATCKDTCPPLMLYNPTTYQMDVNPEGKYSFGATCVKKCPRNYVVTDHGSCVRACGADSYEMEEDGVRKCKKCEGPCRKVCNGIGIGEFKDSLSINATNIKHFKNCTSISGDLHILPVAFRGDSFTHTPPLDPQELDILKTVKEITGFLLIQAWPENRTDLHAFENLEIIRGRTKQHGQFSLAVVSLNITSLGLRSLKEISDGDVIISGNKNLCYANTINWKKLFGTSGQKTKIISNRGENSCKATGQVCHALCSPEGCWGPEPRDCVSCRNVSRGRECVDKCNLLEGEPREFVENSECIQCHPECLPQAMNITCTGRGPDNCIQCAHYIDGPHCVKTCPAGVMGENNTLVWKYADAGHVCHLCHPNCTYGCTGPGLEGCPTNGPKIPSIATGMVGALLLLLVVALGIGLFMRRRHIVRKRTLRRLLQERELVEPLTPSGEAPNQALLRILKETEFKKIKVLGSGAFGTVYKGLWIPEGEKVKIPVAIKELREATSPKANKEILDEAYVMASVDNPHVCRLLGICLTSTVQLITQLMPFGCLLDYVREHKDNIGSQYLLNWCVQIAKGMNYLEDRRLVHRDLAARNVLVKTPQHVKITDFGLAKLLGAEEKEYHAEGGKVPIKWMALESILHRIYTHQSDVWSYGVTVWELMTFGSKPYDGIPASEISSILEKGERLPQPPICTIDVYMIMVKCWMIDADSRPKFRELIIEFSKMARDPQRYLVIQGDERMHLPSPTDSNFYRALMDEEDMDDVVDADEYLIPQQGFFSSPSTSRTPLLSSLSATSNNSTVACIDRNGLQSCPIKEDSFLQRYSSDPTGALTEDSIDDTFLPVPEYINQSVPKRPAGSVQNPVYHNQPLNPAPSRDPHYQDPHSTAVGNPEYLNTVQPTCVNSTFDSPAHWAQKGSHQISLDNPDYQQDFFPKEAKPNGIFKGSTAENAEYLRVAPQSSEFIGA

Number of Hits, S(1) (90 wildtype kinases; 1000 nM, 90 non-mutant kinases): 0
Number of Hits, S(10) (90 wildtype kinases; 1000 nM, 90 non-mutant kinases): 1
Number of Hits, S(35) (90 wildtype kinases; 1000 nM, 90 non-mutant kinases): 1
Selectivity Score S(10) (90 wildtype kinases; 1000 nM, 90 non-mutant kinases): 0.011
Selectivity Score S(35) (90 wildtype kinases; 1000 nM, 90 non-mutant kinases): 0.011
selectivity score after adding MEK3, MEK5 and MEK6 (1/93) (90 wildtype kinases; 93 kinases): 0.011
activity on JNK1/2/3 (JNK1/2/3): no appreciable activity
cysteine residue covalently engaged, GluC digest [1]: Cys341
cysteine residue covalently engaged, trypsin/chymotrypsin digest [1]: Cys218
engagement of FLT3 (FLT3): does not engage
SMILES: O=C(CCl)Nc1cccc(Oc2cc(NCc3ccccc3)ncn2)c1 [Compound 25, N-(3-((6-(benzylamino)pyrimidin-4-yl)oxy)phenyl)-2-chloroacetamide]
concentration that potently attenuated JNK and ATF2 phosphorylation ([2]; 24 h incubation): 5 to 10 µM
effect on phosphorylation of JNK and ATF2 ([2]; western blot, dose-response): decreased phosphorylation
binding to EGFR (EGFR): interacted significantly; also recorded: appreciably bound
